Experimental data taken from publication PMC11879040, “Advancing systemic toxicity risk assessment: Evaluation of a NAM-based toolbox approach” (Toxicological Sciences, 2024).
Counter-ions that a name gives are not always drawn. Like-named read-outs stand apart in the source and are kept apart here.

Key:
[1] = molecular target: Voltage-dependent L-type Ca2+ channel (dihydropyridine site), CACNA1C (r) (Rattus norvegicus, UniProt P22002); assay type: binding
[2] = tested on: Potassium Voltage-Gated Channel Kv non-selective, KCNQ1 (r); assay: IPP KCNQ1 binding (antagonist radioligand); design: species or system rat
[3] = tested on: Gamma-aminobutyric acid receptor subunit alpha-1 BZD site, GABRA1A (r); assay type: binding, rat; conditions: control diazepam
[4] = tested on: Sodium channel protein type 5 subunit alpha (site 2), SCN5A (r); assay type: binding, rat
[5] = molecular target: T1, Adenosine receptor A2a, ADORA2A (h) (Homo sapiens, UniProt P29274); assay: IPP ADORA2A binding (agonist radioligand); conditions: control NECA
T1 construct: purchased Eurofins Cerep (SafetyScreen44-based IPP panel)

[6] = tested on: Thyroid hormone receptor alpha, THRA (h); assay: IPP THRA coactivator recruitment (agonist); assay type: biochemical, human; conditions: agonist, T3
[7] = tested on: Tubulin (r); assay: IPP Tubulin binding; design: species or system rat
[8] = tested on: HepG2 cells; assay: Cell stress panel (CSP), 24 h, 8 concentrations, BIFROST global PoD; assay type: cell-based; conditions: HepG2; cell stress panel PoD
Procedure: Compounds were tested using the previously developed cell stress panel ([Hatherell et al. 2020]) and the expanded biomarker panel outlined in Middleton et al. HepG2 cells were treated with all compounds for 24 h across 8 concentrations prior to biomarker analysis. The same plate layout and number of replicates (3 biological and 2 technical) were used as previously for each assay within the panel.

[9] = tested on: HepG2 cells; assay: High-throughput transcriptomics (HTTr, TempO-Seq), HepG2, 24 h; assay type: cell-based, human; conditions: HepG2; for pod_httr_bifrost PoD: HTTr BIFROST PoD; for podl_path_minbmd PoD: HTTr minimum pathway BMD(L)
Procedure: (§1) HepG2, HepaRG, and MCF7 cells were treated with each compound for 24 h across a dose range of 7 concentrations and lysed using TempO-Seq lysis buffer (BioSpyder Technologies, proprietary kit, see [Middleton et al. 2022] for method details). Sequencing was performed using TempO-Seq (BioClavis) version 2 of the human whole transcriptome panel and analyzed as described previously in Middleton et al.

[10] = tested on: HepaRG cells; assay: High-throughput transcriptomics (HTTr, TempO-Seq), HepaRG, 24 h; assay type: cell-based, human; conditions: HepaRG; for pod_httr_bifrost PoD: HTTr BIFROST PoD; for podl_path_minbmd PoD: HTTr minimum pathway BMD(L)
Procedure: as §1

[11] = tested on: MCF7 cells; assay: High-throughput transcriptomics (HTTr, TempO-Seq), MCF7, 24 h; assay type: cell-based, human; conditions: MCF-7; for pod_httr_bifrost PoD: HTTr BIFROST PoD; for podl_path_minbmd PoD: HTTr minimum pathway BMD(L)
Procedure: as §1

[12] = tested on: 63 targets with known safety liabilities; assay: In vitro pharmacological profiling (IPP) panel, screening at 10 or 100 µM and dose response, minimum IC50/AC50; assay type: biochemical; conditions: read-out: ipp_lowest_ac50_systemic PoD
[13] = tested on: Glutamate receptor ionotropic NMDA 1 non-selective, GRIN1 (r)
[14] = tested on: rat; conditions: rat, cited from earlier work
[15] = cited from earlier work
[16] = single value or median, ref [2],[4],[6],[7],[8],[10],[11],[15],[18],[27],[34], cited from earlier work
[17] = PBK level L2; taken or scaled from references (median where several); ref [6],[7],[10],[19]; cited from earlier work
[18] = hepatic intrinsic clearance (Clint); conditions: PBK level L3; optimised against clinical data; per chemical [8],[9],[14],[16],[22],[24],[25],[29],[30],[32]
[19] = Assignment of risk classifications to benchmark chemical-exposure scenarios; conditions: for risk: Oral, Therapeutic, Tablet, from table S1
[20] = PBK model plasma Cmax estimate (Gastroplus 9.8; levels L1, L2, L3); design: species or system human
[21] = molecular target: Potassium voltage-gated channel subfamily H member 2 hERG, KCNH2 (h) (Homo sapiens, UniProt Q12809); conditions: human
[22] = human
[23] = per chemical see Peff Reference, cited from earlier work
[24] = molecular target: Tyrosine-protein kinase Lck, LCK (h) (Homo sapiens, UniProt P06239); assay: IPP LCK enzymatic activity; assay type: biochemical; conditions: Enzymatic activity; control staurosporine; read-out: IPP Dose Response PoD: LCK
[25] = molecular target: 5-hydroxytryptamine receptor 2B, HTR2B (h) (Homo sapiens, UniProt P41595)
[26] = 100 uM, * denotes assay interference (2-Amino-6-chloro-4-nitrophenol, HC Red 3)
[27] = IV bolus 4 mg, patients hospitalized with community-acquired pneumonia, calibration, ref Spoorenberg et al. 2014
[28] = Oral tablet 6 mg, fasted, 6 female healthy Asian, validation, ref Jobe et al. 2020
[29] = Oral tablet 6 mg, fasted, patients hospitalized with community-acquired pneumonia, validation, ref Spoorenberg et al. 2014
[30] = 10 uM, ligand/control Colchicine
[31] = IPP screening at 10 uM, control CGS 19755

T1 sequence (P29274 whole entry): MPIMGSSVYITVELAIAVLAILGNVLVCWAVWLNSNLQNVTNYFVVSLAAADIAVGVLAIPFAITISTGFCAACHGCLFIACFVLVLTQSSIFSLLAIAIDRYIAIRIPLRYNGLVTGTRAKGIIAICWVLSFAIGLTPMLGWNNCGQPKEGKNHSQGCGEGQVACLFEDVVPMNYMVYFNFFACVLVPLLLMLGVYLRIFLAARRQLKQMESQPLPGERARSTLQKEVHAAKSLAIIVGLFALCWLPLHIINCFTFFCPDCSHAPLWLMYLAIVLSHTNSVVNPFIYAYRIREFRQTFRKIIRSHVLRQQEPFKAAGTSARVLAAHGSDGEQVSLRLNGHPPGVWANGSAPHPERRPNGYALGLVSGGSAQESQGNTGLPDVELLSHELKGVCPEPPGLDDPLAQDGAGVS
Voltage-dependent L-type Ca2+ channel (dihydropyridine site), CACNA1C (r), sequence (P22002 whole entry): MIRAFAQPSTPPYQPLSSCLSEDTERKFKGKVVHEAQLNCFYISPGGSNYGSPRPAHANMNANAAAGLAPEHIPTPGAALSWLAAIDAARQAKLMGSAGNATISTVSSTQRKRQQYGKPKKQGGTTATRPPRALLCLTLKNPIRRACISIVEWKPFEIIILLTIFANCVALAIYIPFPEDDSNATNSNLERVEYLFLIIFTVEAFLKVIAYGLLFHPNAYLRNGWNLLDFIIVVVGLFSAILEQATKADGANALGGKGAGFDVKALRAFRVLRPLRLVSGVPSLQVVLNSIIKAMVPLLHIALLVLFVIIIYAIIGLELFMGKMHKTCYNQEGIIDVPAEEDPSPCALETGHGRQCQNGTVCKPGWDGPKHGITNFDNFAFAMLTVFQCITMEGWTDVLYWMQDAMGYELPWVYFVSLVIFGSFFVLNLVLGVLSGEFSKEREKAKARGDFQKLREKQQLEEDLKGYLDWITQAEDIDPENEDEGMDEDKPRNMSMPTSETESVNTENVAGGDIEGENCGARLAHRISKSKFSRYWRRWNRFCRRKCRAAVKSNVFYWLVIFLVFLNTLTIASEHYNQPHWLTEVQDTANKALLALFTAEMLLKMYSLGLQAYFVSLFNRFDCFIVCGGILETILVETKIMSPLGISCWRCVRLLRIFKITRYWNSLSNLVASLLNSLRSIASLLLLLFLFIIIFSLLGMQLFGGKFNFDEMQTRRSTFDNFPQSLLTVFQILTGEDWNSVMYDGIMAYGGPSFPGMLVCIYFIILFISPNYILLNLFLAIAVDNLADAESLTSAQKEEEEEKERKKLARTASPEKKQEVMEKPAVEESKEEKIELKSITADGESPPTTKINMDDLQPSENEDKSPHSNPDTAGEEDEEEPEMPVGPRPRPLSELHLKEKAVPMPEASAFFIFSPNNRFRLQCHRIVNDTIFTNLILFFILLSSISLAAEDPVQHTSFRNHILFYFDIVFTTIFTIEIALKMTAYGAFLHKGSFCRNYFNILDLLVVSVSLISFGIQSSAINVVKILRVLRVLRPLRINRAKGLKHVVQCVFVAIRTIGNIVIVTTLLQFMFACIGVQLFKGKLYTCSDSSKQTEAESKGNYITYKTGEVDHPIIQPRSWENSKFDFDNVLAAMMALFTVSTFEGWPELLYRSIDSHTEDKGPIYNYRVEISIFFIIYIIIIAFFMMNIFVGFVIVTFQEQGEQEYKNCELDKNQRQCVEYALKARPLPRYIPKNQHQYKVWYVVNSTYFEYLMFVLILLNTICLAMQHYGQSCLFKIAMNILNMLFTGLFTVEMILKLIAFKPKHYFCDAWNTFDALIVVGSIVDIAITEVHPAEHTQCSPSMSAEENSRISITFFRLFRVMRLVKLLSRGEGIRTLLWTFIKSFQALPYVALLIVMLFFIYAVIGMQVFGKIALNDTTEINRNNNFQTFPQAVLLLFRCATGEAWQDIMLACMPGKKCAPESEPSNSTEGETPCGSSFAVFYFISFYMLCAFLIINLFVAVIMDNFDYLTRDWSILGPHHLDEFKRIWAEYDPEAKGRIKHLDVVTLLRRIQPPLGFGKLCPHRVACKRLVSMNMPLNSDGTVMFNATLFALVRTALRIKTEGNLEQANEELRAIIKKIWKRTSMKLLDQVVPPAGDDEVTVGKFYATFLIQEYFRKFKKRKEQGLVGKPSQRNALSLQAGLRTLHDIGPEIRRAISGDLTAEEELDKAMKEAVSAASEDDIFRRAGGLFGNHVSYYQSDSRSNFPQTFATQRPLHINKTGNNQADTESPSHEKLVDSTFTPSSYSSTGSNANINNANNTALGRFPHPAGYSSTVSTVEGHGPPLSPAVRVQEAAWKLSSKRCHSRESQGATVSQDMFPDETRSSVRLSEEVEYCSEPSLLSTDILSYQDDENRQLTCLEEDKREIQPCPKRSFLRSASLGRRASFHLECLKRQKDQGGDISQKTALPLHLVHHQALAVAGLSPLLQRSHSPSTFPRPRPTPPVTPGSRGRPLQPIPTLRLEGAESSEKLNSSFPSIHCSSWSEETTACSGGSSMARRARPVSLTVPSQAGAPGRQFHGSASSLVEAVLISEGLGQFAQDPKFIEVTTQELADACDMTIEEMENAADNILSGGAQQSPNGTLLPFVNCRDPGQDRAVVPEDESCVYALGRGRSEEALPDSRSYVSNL
Tyrosine-protein kinase Lck, LCK (h), sequence (P06239 whole entry): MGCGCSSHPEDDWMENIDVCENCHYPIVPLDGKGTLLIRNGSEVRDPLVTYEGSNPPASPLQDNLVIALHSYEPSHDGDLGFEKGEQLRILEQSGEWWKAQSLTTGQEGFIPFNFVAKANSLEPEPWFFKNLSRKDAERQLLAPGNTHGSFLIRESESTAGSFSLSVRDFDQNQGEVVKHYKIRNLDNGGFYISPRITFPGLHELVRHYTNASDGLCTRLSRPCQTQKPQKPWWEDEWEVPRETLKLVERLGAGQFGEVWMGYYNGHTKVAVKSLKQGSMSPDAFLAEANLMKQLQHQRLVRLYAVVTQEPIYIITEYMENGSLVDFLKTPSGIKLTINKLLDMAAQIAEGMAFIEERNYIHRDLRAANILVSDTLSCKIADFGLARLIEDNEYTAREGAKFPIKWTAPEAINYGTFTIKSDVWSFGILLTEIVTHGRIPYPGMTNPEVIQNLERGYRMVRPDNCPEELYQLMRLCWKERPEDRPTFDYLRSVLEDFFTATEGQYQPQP
Potassium voltage-gated channel subfamily H member 2 hERG, KCNH2 (h), sequence (Q12809 whole entry): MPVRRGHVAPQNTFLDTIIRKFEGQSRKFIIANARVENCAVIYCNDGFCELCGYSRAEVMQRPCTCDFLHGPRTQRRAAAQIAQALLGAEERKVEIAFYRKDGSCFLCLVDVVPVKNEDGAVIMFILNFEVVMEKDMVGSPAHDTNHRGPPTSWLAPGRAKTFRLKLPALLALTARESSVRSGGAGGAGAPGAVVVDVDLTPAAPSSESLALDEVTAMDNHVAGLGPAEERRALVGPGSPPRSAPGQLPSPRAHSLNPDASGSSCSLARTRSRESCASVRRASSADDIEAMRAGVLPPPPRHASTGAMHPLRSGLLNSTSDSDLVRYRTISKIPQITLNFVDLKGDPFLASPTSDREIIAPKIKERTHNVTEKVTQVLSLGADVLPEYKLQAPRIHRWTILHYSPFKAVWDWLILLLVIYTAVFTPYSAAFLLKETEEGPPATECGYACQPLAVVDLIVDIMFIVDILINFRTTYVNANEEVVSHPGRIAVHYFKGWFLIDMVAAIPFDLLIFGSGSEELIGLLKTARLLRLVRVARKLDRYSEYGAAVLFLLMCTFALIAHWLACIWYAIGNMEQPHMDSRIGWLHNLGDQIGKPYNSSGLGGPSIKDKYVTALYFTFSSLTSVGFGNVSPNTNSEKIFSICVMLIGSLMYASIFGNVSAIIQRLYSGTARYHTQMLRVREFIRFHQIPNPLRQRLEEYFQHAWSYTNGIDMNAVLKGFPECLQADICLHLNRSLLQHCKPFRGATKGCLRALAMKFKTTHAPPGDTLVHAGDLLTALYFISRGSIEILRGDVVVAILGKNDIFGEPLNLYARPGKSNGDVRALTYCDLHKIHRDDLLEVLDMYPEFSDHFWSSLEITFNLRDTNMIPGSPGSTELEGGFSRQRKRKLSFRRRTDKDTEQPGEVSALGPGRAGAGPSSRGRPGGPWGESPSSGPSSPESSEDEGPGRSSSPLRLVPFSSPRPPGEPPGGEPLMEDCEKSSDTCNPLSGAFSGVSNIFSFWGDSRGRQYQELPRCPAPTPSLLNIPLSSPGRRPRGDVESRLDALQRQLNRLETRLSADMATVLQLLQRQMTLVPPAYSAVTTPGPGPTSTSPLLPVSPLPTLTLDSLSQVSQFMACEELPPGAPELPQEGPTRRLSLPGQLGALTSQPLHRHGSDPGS
5-hydroxytryptamine receptor 2B, HTR2B (h), sequence (P41595 whole entry): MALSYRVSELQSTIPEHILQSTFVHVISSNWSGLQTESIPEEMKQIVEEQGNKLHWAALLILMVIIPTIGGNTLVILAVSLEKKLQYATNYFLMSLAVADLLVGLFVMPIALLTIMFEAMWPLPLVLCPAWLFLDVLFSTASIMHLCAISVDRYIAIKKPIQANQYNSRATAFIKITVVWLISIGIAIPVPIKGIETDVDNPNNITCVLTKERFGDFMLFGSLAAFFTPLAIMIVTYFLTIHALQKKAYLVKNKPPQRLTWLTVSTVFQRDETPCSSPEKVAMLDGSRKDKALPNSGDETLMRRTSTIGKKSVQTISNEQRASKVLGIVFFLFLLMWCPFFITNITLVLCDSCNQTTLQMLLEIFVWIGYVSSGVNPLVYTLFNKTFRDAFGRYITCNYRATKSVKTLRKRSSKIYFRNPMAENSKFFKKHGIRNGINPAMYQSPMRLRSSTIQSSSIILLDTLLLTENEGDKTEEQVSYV

C[C@@H]1C[C@H]2[C@@H]3CCC4=CC(=O)C=C[C@]4(C)[C@@]3(F)[C@@H](O)C[C@]2(C)[C@@]1(O)C(=O)CO [Dexamethasone, 9-Fluoro-11beta,17,21-trihydroxy-16alpha-methylpregna-1,4-diene-3,20-dione]
Specific binding [1]: -36.4%
Specific binding ([2]; IPP screening at 100 uM, control α-dendrotoxin): -4.1%
Specific binding ([3]; IPP screening at 100 uM): 27.9%
Specific binding [4]: 11.2%
Specific binding ([5]; IPP screening at 100 uM): -9.1%
IPP screening %, Coactivator recruitment [6, 26]: 3.0%
IPP screening %, Specific binding ([7]; 100 uM, ligand/control Colchicine): -8.0%
pod_cell_stress PoD [8]: 14.5194 µM
pod_httr_bifrost PoD [9]: 0.0003269 µM
podl_path_minbmd PoD [9]: 69.6957 µM
pod_httr_bifrost PoD [10]: 3.5452 µM
podl_path_minbmd PoD [10]: 74.2662 µM
pod_httr_bifrost PoD [11]: 9.79e-05 µM
podl_path_minbmd PoD [11]: 6.367 µM
AC50 ([12]; lowest AC50 across IPP panel (systemic targets), cell_type -): 3.15 nM
Specific binding ([13]; IPP screening at 100 uM, control CGS 19755): 10.7%
PoD (NOAEL) ([14]; endocrine toxicity study, ref ECFA ADI): 0.001 mg/kg bw/day
Reported AUC0-t [15, 27]: 507.3 ng·h/mL
Reported cmax [15, 27]: 0.0964 µg/mL
Reported tmax [15, 27]: 0 h
Reported AUC0-t [15, 28]: 689.3 ng·h/mL
Reported cmax [15, 28]: 0.0822 µg/mL
Reported tmax [15, 28]: 1.53 h
Reported AUC0-t [15, 29]: 746.6 ng·h/mL
Reported cmax [15, 29]: 0.0643 µg/mL
Reported tmax [15, 29]: 1.4 h
Fup ([16]; PBK level L2): 26.3%
Fup ([16]; PBK level L3): 26.3%
Intrinsic Liver Clearance [17]: 107.8 L/h
Intrinsic Liver Clearance [18]: 23.37 L/h
Risk Classification ([19]; Oral tablet 0.5 mg/day): High risk
Risk Classification ([19]; Oral tablet 10 mg/day): High risk
risk ([19]; 0.5mg/day, Exp3): 1
risk ([19]; 10mg/day, Exp4): 1

C[C@H]1O[C@@H](O[C@H]2[C@@H](O)C[C@H](O[C@H]3[C@@H](O)C[C@H](O[C@H]4CC[C@@]5(C)[C@H](CC[C@@H]6[C@@H]5C[C@@H](O)[C@]5(C)[C@@H](C7=CC(=O)OC7)CC[C@]65O)C4)O[C@@H]3C)O[C@@H]2C)C[C@H](O)[C@@H]1O [Digoxin, 3beta-{[2,6-Dideoxy-beta-D-ribo-hexopyranosyl-(1->4)-2,6-dideoxy-beta-D-ribo-hexopyranosyl-(1->4)-2,6-dideoxy-beta-D-ribo-hexopyranosyl]oxy}-12beta,14-dihydroxy-5beta-card-20(22)-enolide]
Specific binding [1]: 0.7%
Specific binding [2]: -2.7%
Specific binding ([3]; IPP screening at 10 uM): 11.3%
Specific binding [4]: 19.6%
Specific binding ([5]; IPP screening at 10 uM): 26.2%
IPP screening %, Coactivator recruitment ([6]; 10 uM): 1.0%
IPP screening %, Specific binding [7, 30]: -7.0%
pod_cell_stress PoD [8]: 0.0001773 µM
pod_httr_bifrost PoD [9]: 0.007046 µM
podl_path_minbmd PoD [9]: 0.02695 µM
pod_httr_bifrost PoD [10]: 0.01449 µM
podl_path_minbmd PoD [10]: 0.04151 µM
pod_httr_bifrost PoD [11]: 0.003833 µM
podl_path_minbmd PoD [11]: 0.02134 µM
L2 Cmax estimate underprediction of the L3 plasma Cmax ([20]; largest of any underprediction, printed with ∼): 30- to 50 fold
underprediction of the L3 result at L2 (Cmax) ([20]; therapeutic uses): ≥ 5 fold
Specific binding [13, 31]: -2.6%
IPP screening %, Specific binding [21]: -6.2%

NS(=O)(=O)c1cc(C(=O)O)c(NCc2ccco2)cc1Cl [Furosemide, 4-Chloro-2-{[(furan-2-yl)methyl]amino}-5-sulfamoylbenzoic acid]
Specific binding ([5]; IPP screening at 100 uM): 15.2%
IPP screening %, Coactivator recruitment [6, 26]: -1.0%
IPP screening %, Specific binding [7]: -4.0%
pod_cell_stress PoD [8]: 2.832 µM
pod_httr_bifrost PoD [9]: 3.253 µM
podl_path_minbmd PoD [9]: 177.032 µM
pod_httr_bifrost PoD [10]: 0.2929 µM
podl_path_minbmd PoD [10]: 1.613 µM
pod_httr_bifrost PoD [11]: 72.7631 µM
podl_path_minbmd PoD [11]: 520.886 µM
AC50 [12]: 1380 nM
Specific binding [13]: 5.8%
risk [22]: 1
PoD (NOEL) ([14]; chronic, ref NTP study): 46.9 mg/kg bw/day
Peff ([23]; PBK level L2, ref [3],[4],[11]): 0.41 cm/s x E-04
Peff ([23]; PBK level L3, ref [4],[11]): 0.41 cm/s x E-04

COc1ccc(CCN(C)CCCC(C#N)(c2ccc(OC)c(OC)c2)C(C)C)cc1OC (centres unmarked) [Verapamil Hydrochloride, 2-(3,4-Dimethoxyphenyl)-5-{[2-(3,4-dimethoxyphenyl)ethyl](methyl)amino}-2-(propan-2-yl)pentanenitrile--hydrogen chloride (1/1)]
Specific binding [2]: 4.7%
Specific binding ([3]; IPP screening at 10 uM): -6.7%
Specific binding [4]: 74.6%
IC50 [24]: > 35800 nM
IPP screening %, Coactivator recruitment ([6]; 10 uM): 1.0%
IPP screening %, Specific binding [7, 30]: 13.0%
pod_cell_stress PoD [8]: 0.6383 µM
Specific binding [13, 31]: 2.5%
leading IPP PoD (target) [25]: antagonism of the serotonin 2B receptor
